Reference: patent publication US5053333A, “Protease” (M & D Research Co., Ltd., priority 1988, dated 1991)
Entries after “also recorded” stand apart in the source; their conditions may differ. Like-named read-outs stand apart in the source and are kept apart here. Square brackets hold non-standard residues; d marks the D form. Ends that are not written are not given here. Peptide text beside a SMILES is read from it. pGlu = O=C1CC[C@@H](C(=O)O)N1

Key:
[1] = test system: Benz-I (protease specific for basic amino acid residue); experiment: Cleavage of peptides by Benz-I, HPLC and amino acid composition of fragments; assay type: biochemical, Kluyveromyces lactis IFO 1903
Procedure: The composition of the employed reaction mixture and the examination conditions were as follows. Namely, 500 μl of a reaction mixture containing 25 μmol of tris hydrochloride buffer solution (pH 7.0), 0.25 μmol of CaCl2, 5 mg of Lubrol PX, 100 μg of NaN3, each peptide at various concentrations and Benz-I at various concentrations was allowed to react at 30° C. for 20 hours.
50-μl portions of the reaction mixture were sampled after the reaction for 0 and 20 hours and 50 μl of a reaction terminating agent comprising 0.2% of TFA and 10 mM of EDTA was added thereto. The resulting mixture was analyzed by HPLC. The HPLC was conducted by CH3 CN gradient elution with the use of an Ultron NC18 column (0.45×15 cm) or a TSK gel ODS-80TM column (0.46×25 cm) in the presence of 0.1% of TFA.
The residual reaction mixture was chromatographed under the same conditions as those employed in the above analysis and main peaks were fractionated. The fractionated eluate was evaporated to dryness on a centrifugal evaporator and decomposed with hydrochloric acid at 110° C. for 24 hours. Then each fragment was assumed from the amino acid composition.

[2] = test system: protease specific for basic amino acid residue from Sporobolomyces odrus IFO 1597; assay type: biochemical
Procedure: The enzyme was treated in the standard reaction mixture containing 1 mM of EDTA and free from any substrate at 25° C. for 30 minutes. Various metal ions were added thereto each in such an amount as to give a concentration of 1.5 mM and the mixture was incubated at 30° C. for five minutes. Then the activity of each case was determined.

[3] = test system: Benz-I (protease specific for basic amino acid residue); assay type: biochemical, Kluyveromyces lactis IFO 1903
Procedure: Benz-I was incubated in the presence of 10 mM of EDTA at 4° C. for one hour. When the enzyme was completely inactivated, the culture was dialyzed against 10 mM tris hydrochloride buffer solution (pH 7.0) containing 0.2% of Lubrol PX to thereby completely remove the EDTA. The enzyme mixture thus dialyzed was examined with respect to the recovery of the activity in reaction mixtures containing 0.5 mM of various metal ions.

protease B = experiment: Activation and inhibition of protease B (stated properties); assay type: biochemical, Kluyveromyces lactis IFO 1903
protease A = experiment: Activation and inhibition of protease A (stated properties); assay type: biochemical, Sporobolomyces odrus IFO 1597
Procedure: The enzymes was incubated in the absence of any substrate in standard reaction mixtures containing various inhibitors at 25° C. for 30 minutes. After adding the substrate, the residual activity of each enzyme was determined.
The enzyme was reacted in the standard reaction mixture while varying the type and concentration of surfactants.
The activity of the enzyme was determined in the presence of 0.1% of EDTA while varying the concentration of CaCl2. […] The concentration of free CaCl2 was calculated from the apparent dissociation constant (K1) of EDTA for CaCl2 (log K1 =7.3).

[4] = test system: protease specific for basic amino acid residue from Sporobolomyces odrus IFO 1597; experiment: Behavior of Sporobolomyces protease against various inhibitors (residual activity); assay type: biochemical; details: pH 7, 30 min, 1000 µM
[5] = EDTA treatment +, reaction system EDTA (1 mM) +, metal 1.5 mM, 30° C. five minutes
[6] = Benz-I treated with 10 mM EDTA, dialyzed, reaction mixture with 0.5 mM metal ion, control lot = 100
[7] = 200 mU Benz-I, 50 nmol peptide, 30° C., 20 hours

For “YGGFMRRVGRPEWWMDYQKRYGGFL [3200-dalton Adrenal Peptide E]”, which “Fragment obtained (assumed from amino acid composition) after reaction with Benz-I” value (from here on “Fragment obtained”) [1] is on record?
The value was “^1 Tyr-Gly-Gly-Phe-Met-Arg-^7 Arg; also recorded: ^21 Tyr-Gly-Gly-Phe-^25 Leu”.

What does the source list for `[Cl][Co][Cl]` [cobalt chloride]?
Relative activity [2, 5]: 57%; Relative activity [3, 6]: 21.1%

`[Cl][Mn][Cl]` [manganese chloride] was tested. Which Relative activity [2, 5] did it give?
Its Relative activity is 53%.

And the Relative activity [3, 6]?
The Relative activity was 33.9%.

Which “activation of protease B” value (protease B; statement in words) does the source give for `[Ca+2].[Cl-].[Cl-]` [calcium chloride] here?
The value was “activated”.

And the “activation of protease A” value (protease A; statement in words)?
The value was “best activated”.

What about the Relative activity [2, 5] of the same compound?
The Relative activity was 107%.

And the Relative activity [3, 6]?
Its Relative activity is 93.1%.

Which “Fragment obtained” value [1, 7] does the source give for “RKRSRKE [protein kinase-related peptide]” here?
The value was “Ser-Arg-Lys-Glu”.

What does the source list for `[Cl-].[Cl-].[Mg+2]` [magnesium chloride]?
Relative activity [2, 5]: 12%; Relative activity [3, 6]: 43.6%

How did the Relative activity [2, 5] turn out when `[Cl][Ni][Cl]` [nickel chloride] was run?
The Relative activity was 58%.

And the Relative activity [3, 6]?
Its Relative activity is 16.1%.

“Tyr-Gly-Gly-Phe-Leu-Arg-Arg-Ile-Arg-Pro-Lys-Leu-Lys (YGGFLRRIRPKLK; printed: Tyr-Gly-Gly-Phe-Leu-Arg-Arg-Ile-Arg-Pro-Lys-Leu-Lys) [Dynorphin A (1-13)]” was tested. Which “Fragment obtained” value [1] did it give?
The value was “Ile-Arg-Pro-Lys-Leu-Lys; also recorded: Try-Gly-Gly-Phe-Leu-Arg-Arg”.

Which “Fragment obtained” value [1] does the source give for YGGFMRRVRPE [BAM-12P] here?
Its value is “Val-Gly-Arg-Pro-Glu”.

Which “Fragment obtained” value [1, 7] does the source give for `CC[C@H](C)[C@H](NC(=O)[C@H](Cc1c[nH]c2ccccc12)NC(=O)[C@@H]1CCCN1C(=O)[C@H](CCCNC(=N)N)NC(=O)[C@H](CCCCN)NC(=O)CNC(=O)[C@@H]1CCC(=O)N1)C(=O)N[C@@H](CC(C)C)C(=O)O` [Xenopsin] ([pGlu]GKRPWIL-OH) here?
Its value is “pGlu-Gly-Lys-Arg”.

What does the source list for `O=C(O)CN(CCN(CC(=O)O)CC(=O)O)CC(=O)O` [ethylenediaminetetraacetic acid]?
inhibition of protease B (protease B): inhibited; inhibition of protease A (protease A): inhibited; Relative activity [2]: 3%; Relative activity ([2]; pH 7, 1000 µM): 0%; relative activity (residual) [4]: 2%; Relative activity [3]: 0.36%; Relative activity ([3]; 10000 µM): 0.09%
